Results on four compounds are retold here after ChEMBL document CHEMBL3137667, “[Drug-induced liver injury; fourteenth updated edition of the bibliographic database of liver injuries and related drugs]” (Gastroenterol Clin Biol, 2004).

The conditions of data set [1]: human.
The conditions of data set [2]: human, serum.
The conditions of data set [3]: human. The source holds these as a separate data set.
Data set [4] can be described thus: Proposed mechanism(s) of liver damage. [column 'MEC' in source]. The settings on record: human.
For data set [5] the following is noted: human. The source holds these as a separate data set.
For data set [6] the following is noted: human. The source holds these as a separate data set.
For data set [7] the following is noted: human. This is another data set of the same source.
The conditions of data set [8]: human, serum, 4383 h.
The conditions of data set [9]: human. The source holds these as a separate data set.
Data set [10] is described as follows: Comments (NB not yet translated). [column 'COMMENTAIRES' in source]. The settings on record: human.
The conditions of data set [11]: human. The source holds these as a separate data set.
Data set [12] is described as follows: Highest frequency of moderate liver toxicity observed during clinical trials, expressed as a percentage. [column '% BIOL' in source]. The settings on record: human.
For data set [13] the following is noted: human, serum. The source holds these as a separate data set.
Data set [14] can be described thus: Times to onset, minimal and maximal, observed in the indexed observations. [column 'DELAI' in source]. The settings on record: human.
A short description of data set [15]: Presence of at least one case with successful reintroduction. [column 'REINT' in source]. The settings on record: human.
The conditions of data set [16]: human. The source holds these as a separate data set.
For data set [17] the following is noted: human. This is another data set of the same source.
A short description of data set [18]: Highest frequency of acute liver toxicity observed during clinical trials, expressed as a percentage. [column '% AIGUE' in source]. The settings on record: human.
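Wherever Hepatotoxicity (association with vascular disease) is given: count of indexed literature references reporting vascular liver injury in humans, e.g. peliosis hepatitis, hepatic veno-occlusive disease or Budd-Chiari syndrome.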
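Wherever Hepatotoxicity (benign tumour) is given: value is a count of indexed literature references citing a benign tumour confirmed by histopathology.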
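Wherever Hepatotoxicity (choleostasis) is given: human cholestatic liver injury, shown by histopathology or by peak ALT or AST elevation over alkaline phosphatase ratio below 2, value counts indexed literature reports.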
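Wherever Hepatotoxicity (chronic liver disease) is given: chronic liver injury confirmed by histopathology or persistently raised serum aminotransferase activity beyond 6 months, value given as the count of indexed literature references.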
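Wherever Hepatotoxicity (cirrhosis) is given: value is a count of indexed literature references reporting cirrhosis confirmed by histopathology.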
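Wherever Hepatotoxicity (cytolytic) is given: human cytolytic liver injury, shown by histopathology or by a ratio above 5 of peak ALT or AST elevation to alkaline phosphatase elevation, value counts indexed references.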
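Wherever Hepatotoxicity (granulomatous hepatitis) is given: value is a count of indexed literature references reporting granulomatous liver disease confirmed by histopathology.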
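Wherever Hepatotoxicity (malignant tumour) is given: malignant tumour confirmed by histopathology, value gives the count of indexed literature references reporting it.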
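Wherever Hepatotoxicity (severe hepatitis) is given: human clinical data: severe hepatitis, meaning potentially life-threatening liver failure or clinically observed cases, the value counts how many indexed literature references report it.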
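Wherever Hepatotoxicity (steatosis) is given: steatosis confirmed by histopathology, value is the count of indexed references.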

In the case of `COc1cc(C)c(/C=C/C(C)=C/C=C/C(C)=C/C(=O)O)c(C)c1C` [ACITRETIN], the “Hepatotoxicity (malignant tumour)” value in data set [1] was 0. The “Hepatotoxicity (acute)” value is 12 in data set [2] and 10% in data set [18]. Also, the “Hepatotoxicity (choleostasis)” value in [3] came out at 1. Also, the “Hepatotoxicity (mechanism)” value in data set [4] is listed as “Dose-dependant”. For the same compound, the “Hepatotoxicity (severe hepatitis)” value in data set [5] is 0. The “Hepatotoxicity (association with vascular disease)” value in data set [6] was 0. The “Hepatotoxicity (steatosis)” value in data set [7] was determined as 0. In addition, the “Hepatotoxicity (chronic liver disease)” value in data set [8] is on record as 2. Moreover, in data set [9], the “Hepatotoxicity (benign tumour)” value is 0. The “Hepatotoxicity (comment)” value in [10] is on record as “CHOLANGIOLITE CHOLESTASE_PROLONGEE AGGRAVATION_HVA”. In addition, the “Hepatotoxicity (granulomatous hepatitis)” value in data set [11] was found to be 0. Besides, the “Hepatotoxicity (moderate)” value is 30% in data set [12] and 16 in data set [13]. The “Hepatotoxicity (time to onset)” value in data set [14] amounted to 1.5 hours - 5 months. Further, the “Hepatotoxicity (successful reintroduction)” value in [15] is “yes”. Moreover, the “Hepatotoxicity (cytolytic)” value in data set [16] is on record as 5. The “Hepatotoxicity (cirrhosis)” value in data set [17] is on record as 1.
Turning to `CC(C)(S)[C@@H](N)C(=O)O` [PENICILLAMINE], the “Hepatotoxicity (malignant tumour)” value in data set [1] turned out to be 0. Besides, the entries for the “Hepatotoxicity (acute)” value in data set [2] and in data set [18] were 31 and 0%, respectively. Moreover, in [3], the “Hepatotoxicity (choleostasis)” value was found to be 28. In addition, the “Hepatotoxicity (mechanism)” value in [4] is listed as “Allergic”. For the same compound, the “Hepatotoxicity (severe hepatitis)” value in data set [5] turned out to be 0. For the same compound, the “Hepatotoxicity (association with vascular disease)” value in data set [6] is 0. Besides, the “Hepatotoxicity (steatosis)” value in [7] came to 5. In addition, the “Hepatotoxicity (chronic liver disease)” value in [8] amounted to 1. In [9], the “Hepatotoxicity (benign tumour)” value amounted to 0. In addition, the “Hepatotoxicity (comment)” value in [10] is on record as “CHOLESTASE_PROLONGEE CHOLANGITE”. Besides, the “Hepatotoxicity (granulomatous hepatitis)” value in [11] is recorded as 2. The “Hepatotoxicity (moderate)” value is 6% in data set [12] and 12 in [13]. Further, the “Hepatotoxicity (time to onset)” value in data set [14] was 4 days - 2 years. In addition, the “Hepatotoxicity (successful reintroduction)” value in data set [15] is “yes”. For the same compound, in data set [16], the “Hepatotoxicity (cytolytic)” value amounted to 5. The “Hepatotoxicity (cirrhosis)” value in data set [17] came to 0.
`O=C(CCCN1CCC(O)(c2ccc(Cl)cc2)CC1)c1ccc(F)cc1` [HALOPERIDOL]: in [1], the “Hepatotoxicity (malignant tumour)” value is 0. Besides, the “Hepatotoxicity (choleostasis)” value in [3] is listed as 8. Besides, the “Hepatotoxicity (mechanism)” value in data set [4] was “Allergic”. The “Hepatotoxicity (severe hepatitis)” value in [5] is recorded as 0. In addition, the “Hepatotoxicity (association with vascular disease)” value in data set [6] is listed as 0. In [7], the “Hepatotoxicity (steatosis)” value came out at 0. Further, in data set [8], the “Hepatotoxicity (chronic liver disease)” value came to 1. In addition, the “Hepatotoxicity (benign tumour)” value in [9] is 0. Further, the “Hepatotoxicity (comment)” value in data set [10] is recorded as “RC/FLUPHENAZINE CHOLESTASE_PROLONGEE #CBP”. In addition, the “Hepatotoxicity (granulomatous hepatitis)” value in [11] is 0. Moreover, the “Hepatotoxicity (moderate)” value in data set [12] was determined as 35.1%; in data set [13], 12. In addition, the “Hepatotoxicity (time to onset)” value in data set [14] is on record as 2 weeks - 5 months. The “Hepatotoxicity (successful reintroduction)” value in data set [15] was “yes”. Also, in [16], the “Hepatotoxicity (cytolytic)” value is reported as 4. In data set [17], the “Hepatotoxicity (cirrhosis)” value amounted to 0. Moreover, the “Hepatotoxicity (acute)” value in data set [18] was determined as 0.8%.
Take `CCCc1cc(=O)[nH]c(=S)[nH]1` [PROPYLTHIOURACIL]: in [1], the “Hepatotoxicity (malignant tumour)” value amounted to 0. Moreover, the “Hepatotoxicity (choleostasis)” value in data set [3] (Liver) came to 15. The “Hepatotoxicity (mechanism)” value in [4] (Liver) was “Allergic, Reactive metabolite”. Further, the “Hepatotoxicity (severe hepatitis)” value in data set [5] (Liver) was 19. For the same compound, the “Hepatotoxicity (association with vascular disease)” value in data set [6] is recorded as 0. Moreover, the “Hepatotoxicity (steatosis)” value in data set [7] was determined as 0. Moreover, in data set [8], the “Hepatotoxicity (chronic liver disease)” value came to 4. Moreover, the “Hepatotoxicity (benign tumour)” value in [9] was 0. Moreover, the “Hepatotoxicity (comment)” value in data set [10] is given as “AC_ANTI-N/-M CHOLESTASE_PROLONGEE”. Also, the “Hepatotoxicity (granulomatous hepatitis)” value in data set [11] (Liver) came out at 0. The results for the “Hepatotoxicity (moderate)” value in [12] (Liver) and in data set [13] were 27.8% and 5, respectively. Further, the “Hepatotoxicity (time to onset)” value in data set [14] is reported as 1 day - 1.3 years. Moreover, the “Hepatotoxicity (successful reintroduction)” value in data set [15] is on record as “yes”. Besides, in data set [16] (Liver), the “Hepatotoxicity (cytolytic)” value came to 31. In [17], the “Hepatotoxicity (cirrhosis)” value is 1.
